Values quoted from earlier work as cited in patent EP2382994A1, “Ligand targeted nanocapsules for the delivery of RNAi and other agents” (Cattaneo, Maurizio Victor, priority 2010, dated 2011).

Experiments:
[1] = systemic delivery of 20 mg DOX; Tang et al. 2007

COc1cccc2c1C(=O)c1c(O)c3c(c(O)c1C2=O)C[C@@](O)(C(=O)CO)C[C@@H]3O[C@H]1C[C@H](N)[C@H](O)[C@H](C)O1 [DOX, Doxorubicin]
clinical efficacy in melanoma (advanced stage melanoma): essentially ineffective
lethal toxicity, time of treatment [1]: ≤ 8 days
